4 compounds from US20010018065A1, “Compounds and methods for the treatment of bacterial dysentery using antibiotics and toxin binding oligosaccharide compositions” (priority 1998, published 2001) can be followed below.

For the assay, the system named is E. coli ATCC 25922. Put plainly: Minimum inhibitory concentration (NCCLS M7-A2) for reference strain. As to conditions: reference strain ATCC #25922; for MIC: Escherichia coli, ATCC25922. The format is cell-based.

≈ marks a conversion by molar mass, not a printed value.

Consider `CN(C)[C@@H]1C(O)=C(C(N)=O)C(=O)[C@@]2(O)C(O)=C3C(=O)c4c(O)cccc4[C@@](C)(O)[C@H]3C[C@@H]12` [Tetracycline], for which the lowest concentration to inhibit growth (MIC) was 1.92 µg/mL (≈ 4.32 µM).
Consider `C=CC1=C(C(=O)O)N2C(=O)[C@@H](NC(=O)/C(=N\OCC(=O)O)c3csc(N)n3)[C@H]2SC1` [Cefixime], for which 0.96 µg/mL (≈ 2.12 µM) was the least that counted as inhibitory (MIC).
As to `CO[C@@]12[C@H](COC(N)=O)C3=C(C(=O)C(C)=C(N)C3=O)N1C[C@@H]1N[C@@H]12` [Mitomycin-C], the “Minimum Inhibitory Concentration” value stood at 9.6 µg/mL.
As to `O=C(O)c1cn(C2CC2)c2cc(N3CCNCC3)c(F)cc2c1=O` [Ciprofloxacin], the MIC (as a rule, the smallest concentration in the dilution series that meets the test's criterion for growth inhibition) was determined as 0.0384 µg/mL (≈ 0.116 µM).
